The source of these data is ChEMBL document CHEMBL1135576, “Synthesis and biological characterization of L-N(6)-(1-iminoethyl)lysine 5-tetrazole-amide, a prodrug of a selective iNOS inhibitor” (J Med Chem, 2002).

Where only a bound is given, the exact number is not on record here.

Assay [1] deals with T1, Nitric oxide synthase, inducible (Homo sapiens, UniProt P35228). Description: The concentration required for inhibition of Human inducible nitric oxide synthase (iNOS) isoform.
A further assay deals with Nitric oxide synthase 1 (Homo sapiens, UniProt P29475). In words: The concentration required for inhibition of Human Neuronal nitric oxide synthase (nNOS).
Nitric oxide synthase 1, sequence (P29475 whole entry, canonical isoform): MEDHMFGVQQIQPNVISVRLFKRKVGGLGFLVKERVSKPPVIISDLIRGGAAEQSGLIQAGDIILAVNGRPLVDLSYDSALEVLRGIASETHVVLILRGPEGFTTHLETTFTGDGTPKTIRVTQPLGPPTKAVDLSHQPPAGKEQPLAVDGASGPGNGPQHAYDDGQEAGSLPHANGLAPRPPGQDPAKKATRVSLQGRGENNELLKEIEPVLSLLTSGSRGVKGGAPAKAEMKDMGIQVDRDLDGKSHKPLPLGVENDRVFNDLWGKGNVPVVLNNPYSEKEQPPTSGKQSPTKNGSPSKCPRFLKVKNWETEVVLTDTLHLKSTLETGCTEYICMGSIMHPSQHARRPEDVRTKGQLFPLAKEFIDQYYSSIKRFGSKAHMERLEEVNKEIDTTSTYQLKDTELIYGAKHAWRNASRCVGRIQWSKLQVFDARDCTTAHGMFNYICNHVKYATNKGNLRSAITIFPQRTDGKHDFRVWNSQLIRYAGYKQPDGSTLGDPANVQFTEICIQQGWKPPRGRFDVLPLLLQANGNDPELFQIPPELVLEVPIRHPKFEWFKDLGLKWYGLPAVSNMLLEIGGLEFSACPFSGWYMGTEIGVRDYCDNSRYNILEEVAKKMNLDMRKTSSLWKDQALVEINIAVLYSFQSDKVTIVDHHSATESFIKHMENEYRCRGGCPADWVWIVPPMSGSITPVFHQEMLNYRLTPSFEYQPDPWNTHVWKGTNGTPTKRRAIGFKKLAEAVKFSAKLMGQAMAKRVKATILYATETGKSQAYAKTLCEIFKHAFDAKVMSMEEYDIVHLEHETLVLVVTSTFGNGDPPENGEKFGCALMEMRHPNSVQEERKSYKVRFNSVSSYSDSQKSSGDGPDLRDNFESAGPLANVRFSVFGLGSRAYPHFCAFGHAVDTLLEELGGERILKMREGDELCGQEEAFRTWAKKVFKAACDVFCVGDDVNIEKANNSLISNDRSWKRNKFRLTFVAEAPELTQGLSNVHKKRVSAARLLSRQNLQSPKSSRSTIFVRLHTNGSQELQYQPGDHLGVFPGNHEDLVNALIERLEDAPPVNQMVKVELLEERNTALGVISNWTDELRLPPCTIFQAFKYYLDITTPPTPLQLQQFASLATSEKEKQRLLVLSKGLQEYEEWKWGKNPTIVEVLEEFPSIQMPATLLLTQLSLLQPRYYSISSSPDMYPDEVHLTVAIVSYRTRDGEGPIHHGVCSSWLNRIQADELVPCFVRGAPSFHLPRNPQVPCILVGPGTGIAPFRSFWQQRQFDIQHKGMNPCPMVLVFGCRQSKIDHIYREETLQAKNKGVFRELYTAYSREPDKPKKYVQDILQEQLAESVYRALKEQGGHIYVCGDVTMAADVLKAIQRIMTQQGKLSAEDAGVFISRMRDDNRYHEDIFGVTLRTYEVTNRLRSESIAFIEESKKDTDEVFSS
Assay [2] concerns the target T1, Nitric oxide synthase, inducible. Description: The concentration required for inhibition of Human inducible nitric oxide synthase (iNOS) isoform, expressed as IC50.

T1 sequence (P35228 whole entry, canonical isoform): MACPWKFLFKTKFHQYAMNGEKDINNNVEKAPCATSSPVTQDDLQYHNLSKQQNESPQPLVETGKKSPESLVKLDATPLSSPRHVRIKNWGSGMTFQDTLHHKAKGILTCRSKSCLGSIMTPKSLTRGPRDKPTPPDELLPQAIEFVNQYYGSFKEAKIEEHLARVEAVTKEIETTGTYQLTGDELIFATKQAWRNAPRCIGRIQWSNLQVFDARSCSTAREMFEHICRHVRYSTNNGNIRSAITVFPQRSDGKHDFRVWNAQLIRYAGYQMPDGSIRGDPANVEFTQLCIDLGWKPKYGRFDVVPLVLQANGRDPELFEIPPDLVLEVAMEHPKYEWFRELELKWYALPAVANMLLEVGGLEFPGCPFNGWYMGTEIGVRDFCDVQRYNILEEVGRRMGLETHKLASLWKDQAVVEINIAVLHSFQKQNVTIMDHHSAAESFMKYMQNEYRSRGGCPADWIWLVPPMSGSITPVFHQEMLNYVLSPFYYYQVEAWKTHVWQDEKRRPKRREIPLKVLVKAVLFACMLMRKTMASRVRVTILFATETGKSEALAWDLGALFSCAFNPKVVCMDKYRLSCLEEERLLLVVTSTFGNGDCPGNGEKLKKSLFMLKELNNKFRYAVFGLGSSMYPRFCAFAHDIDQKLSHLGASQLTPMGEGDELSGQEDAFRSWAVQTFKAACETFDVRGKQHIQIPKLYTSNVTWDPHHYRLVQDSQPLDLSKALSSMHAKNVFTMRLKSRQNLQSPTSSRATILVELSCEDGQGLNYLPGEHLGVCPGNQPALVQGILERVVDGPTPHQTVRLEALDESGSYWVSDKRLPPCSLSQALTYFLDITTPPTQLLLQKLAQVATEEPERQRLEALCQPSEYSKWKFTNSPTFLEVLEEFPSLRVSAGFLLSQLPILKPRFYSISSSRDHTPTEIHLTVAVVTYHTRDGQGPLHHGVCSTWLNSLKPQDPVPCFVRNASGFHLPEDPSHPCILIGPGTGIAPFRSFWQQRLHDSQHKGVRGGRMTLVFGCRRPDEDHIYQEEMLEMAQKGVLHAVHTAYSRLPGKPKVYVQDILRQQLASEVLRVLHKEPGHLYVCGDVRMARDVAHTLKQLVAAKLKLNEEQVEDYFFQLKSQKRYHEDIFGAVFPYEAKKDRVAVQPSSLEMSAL

One may read the IC50 as the concentration at which inhibition is half-maximal. As to `CC(=N)NCCCC[C@H](N)C(=O)O`, the IC50 in assay [1] amounted to 5.9 µM; at Nitric oxide synthase 1 it was 35 µM.

As for `CC(=N)NCCCC[C@H](N)C(=O)Nc1nnn[nH]1`, the half-inhibitory concentration (IC50) (at Nitric oxide synthase 1; in assay [2]) was more than 1850 µM in each case.
